# Measurements reported in patent US10155788B2, “Cationic steroidal antimicrobial prodrug compositions and uses thereof” (BRIGHAM YOUNG UNIVERSITY, priority 2014, dated 2018).
# Columns and labels:
# [1] = tested on: ATCC 25923 strain of staphylococcus aureus; test: Minimum inhibitory concentration against staph A; type: cell-based; settings: ATCC25923; staphylococcus aureus ATCC 25923
# Description: The pharmacological analysis of the methane sulfonate prodrug of CSA-13 (CSA-13 MS) versus the free base CSA-13 compound was assessed for their antimicrobial properties against the ATCC 25923 strain of staphylococcus aureus (hereinafter “staph A”).
# C57BL/6 female mice = test: Maximum Tolerated Dose study of CSA-192 MS, intravenous, in mice; type: in vivo; settings: for mortality and abnormal clinical signs: 7 days observation
# Text: The objective of this study was to determine the Maximum Tolerated Dose (MTD) of CSA-192 MS following intravenous (i.v.) administration at various dose levels in C57BL/6 female mice. FIG. 2 is a graph showing CSA-192 MS Kinetics.
# Immunocompetent C57BL/6 female mice weighing 16 to 20 g were obtained from the University of Sevilla's facility. The number of animals that were selected for use in this study was considered to be the minimum requirement to meet rational scientific endpoints.
# One the first day of the study, mice were subjected to randomization and allocated to different groups, so that each group (G) contains 6 females. Each cage housed 6 mice. Each cage was identified by a cage card, with details like study item, species, strain, sex, number of animals, date, dose, and investigator name.
# The study was conducted at four different dose levels. On day 1 of treatment all the animals in G1, G2, G3, and G4 groups were administered with CSA-192 MS at 4, 8, 16, and 32 mg/kg based on their body weight. Dose volumes were maintained at 0.2 mL for G1, G2, and G3. The dose volume for G4 was 0.32 mL.
# More particularly, the test item was administered by intravenous route, at dose concentration of 4 mg/kg body weight for G1, 8 mg/kg body weight for G2, 16 mg/kg body weight for G3, and 32 mg/kg body weight G4 groups, respectively. Dose volumes were maintained at 0.2 mL for G1, G2, and G3. For group G4 the dose volume was 0.32 mL.
# The first day they were checked immediately after dose administration, at 30 min, 1 hour, and every 4 hours, the following days twice a day. Mice were sacrificed on day 7 of the study period.
smiles,measurement,setting,value
CCCCCCCCNCCC[C@@H](C)[C@H]1CC[C@H]2[C@@H]3[C@H](OCCCN)C[C@@H]4C[C@H](OCCCN)CC[C@]4(C)[C@H]3C[C@H](OCCCN)[C@]12C [CSA-13],MIC,[1],1.6 µg/mL
CCCCCCCCNC(=O)CC[C@@H](C)[C@H]1CC[C@H]2[C@@H]3[C@H](OCCCN)C[C@@H]4C[C@H](OCCCN)CC[C@]4(C)[C@H]3C[C@H](OCCCN)[C@]12C [CSA-192 MS],mortality and abnormal clinical signs,"C57BL/6 female mice; 4.0 mg/kg body weight (G1), intravenously",no incidences of mortality and abnormal clinical signs
same,mortality and abnormal clinical signs,"C57BL/6 female mice; 8.0 mg/kg body weight (G2), intravenously",no incidences of mortality and abnormal clinical signs
same,clinical signs,"C57BL/6 female mice; 16.0 mg/kg body weight (G3), intravenously, immediately after administration, disappeared after an hour, rest of G3 without signs",one animal showed signs of somnolence
same,mortality and abnormal clinical signs,"C57BL/6 female mice; 32.0 mg/kg body weight (G4), intravenously",no incidences of mortality and abnormal clinical signs
same,Clinical observations/No of animals per group,"C57BL/6 female mice; G1 4 mg/Kg i.v., Day 1",0/6
same,No of animals found dead/No. of animals per group,"C57BL/6 female mice; G1 4 mg/Kg i.v., Day 1",0/6
same,Clinical observations/No of animals per group,"C57BL/6 female mice; G1 4 mg/Kg i.v., Day 2",0/6
same,No of animals found dead/No. of animals per group,"C57BL/6 female mice; G1 4 mg/Kg i.v., Day 2",0/6
same,Clinical observations/No of animals per group,"C57BL/6 female mice; G1 4 mg/Kg i.v., Day 3",0/6
same,No of animals found dead/No. of animals per group,"C57BL/6 female mice; G1 4 mg/Kg i.v., Day 3",0/6
same,Clinical observations/No of animals per group,"C57BL/6 female mice; G1 4 mg/Kg i.v., Day 4",0/6
same,No of animals found dead/No. of animals per group,"C57BL/6 female mice; G1 4 mg/Kg i.v., Day 4",0/6
same,Clinical observations/No of animals per group,"C57BL/6 female mice; G1 4 mg/Kg i.v., Day 5",0/6
same,No of animals found dead/No. of animals per group,"C57BL/6 female mice; G1 4 mg/Kg i.v., Day 5",0/6
same,Clinical observations/No of animals per group,"C57BL/6 female mice; G1 4 mg/Kg i.v., Day 6",0/6
same,No of animals found dead/No. of animals per group,"C57BL/6 female mice; G1 4 mg/Kg i.v., Day 6",0/6
same,Clinical observations/No of animals per group,"C57BL/6 female mice; G1 4 mg/Kg i.v., Day 7",0/6
same,No of animals found dead/No. of animals per group,"C57BL/6 female mice; G1 4 mg/Kg i.v., Day 7",0/6
same,Clinical observations/No of animals per group,"C57BL/6 female mice; G2 8 mg/kg i.v., Day 1",0/6
same,No of animals found dead/No. of animals per group,"C57BL/6 female mice; G2 8 mg/kg i.v., Day 1",0/6
same,Clinical observations/No of animals per group,"C57BL/6 female mice; G2 8 mg/kg i.v., Day 2",0/6
same,No of animals found dead/No. of animals per group,"C57BL/6 female mice; G2 8 mg/kg i.v., Day 2",0/6
same,Clinical observations/No of animals per group,"C57BL/6 female mice; G2 8 mg/kg i.v., Day 3",0/6
same,No of animals found dead/No. of animals per group,"C57BL/6 female mice; G2 8 mg/kg i.v., Day 3",0/6
same,Clinical observations/No of animals per group,"C57BL/6 female mice; G2 8 mg/kg i.v., Day 4",0/6
same,No of animals found dead/No. of animals per group,"C57BL/6 female mice; G2 8 mg/kg i.v., Day 4",0/6
same,Clinical observations/No of animals per group,"C57BL/6 female mice; G2 8 mg/kg i.v., Day 5",0/6
same,No of animals found dead/No. of animals per group,"C57BL/6 female mice; G2 8 mg/kg i.v., Day 5",0/6
same,Clinical observations/No of animals per group,"C57BL/6 female mice; G2 8 mg/kg i.v., Day 6",0/6
same,No of animals found dead/No. of animals per group,"C57BL/6 female mice; G2 8 mg/kg i.v., Day 6",0/6
same,Clinical observations/No of animals per group,"C57BL/6 female mice; G2 8 mg/kg i.v., Day 7",0/6
same,No of animals found dead/No. of animals per group,"C57BL/6 female mice; G2 8 mg/kg i.v., Day 7",0/6
same,Clinical observations/No of animals per group,"C57BL/6 female mice; G3 16 mg/kg i.v., Day 1",1/6
same,No of animals found dead/No. of animals per group,"C57BL/6 female mice; G3 16 mg/kg i.v., Day 1",0/6
same,Clinical observations/No of animals per group,"C57BL/6 female mice; G3 16 mg/kg i.v., Day 2",0/6
same,No of animals found dead/No. of animals per group,"C57BL/6 female mice; G3 16 mg/kg i.v., Day 2",0/6
same,Clinical observations/No of animals per group,"C57BL/6 female mice; G3 16 mg/kg i.v., Day 3",0/6
same,No of animals found dead/No. of animals per group,"C57BL/6 female mice; G3 16 mg/kg i.v., Day 3",0/6
same,Clinical observations/No of animals per group,"C57BL/6 female mice; G3 16 mg/kg i.v., Day 4",0/6
same,No of animals found dead/No. of animals per group,"C57BL/6 female mice; G3 16 mg/kg i.v., Day 4",0/6
same,Clinical observations/No of animals per group,"C57BL/6 female mice; G3 16 mg/kg i.v., Day 5",0/6
same,No of animals found dead/No. of animals per group,"C57BL/6 female mice; G3 16 mg/kg i.v., Day 5",0/6
same,Clinical observations/No of animals per group,"C57BL/6 female mice; G3 16 mg/kg i.v., Day 6",0/6
same,No of animals found dead/No. of animals per group,"C57BL/6 female mice; G3 16 mg/kg i.v., Day 6",0/6
same,Clinical observations/No of animals per group,"C57BL/6 female mice; G3 16 mg/kg i.v., Day 7",0/6
same,No of animals found dead/No. of animals per group,"C57BL/6 female mice; G3 16 mg/kg i.v., Day 7",0/6
same,Clinical observations/No of animals per group,"C57BL/6 female mice; G4 32 mg/kg i.v., Day 1",0/6
same,No of animals found dead/No. of animals per group,"C57BL/6 female mice; G4 32 mg/kg i.v., Day 1",0/6
same,Clinical observations/No of animals per group,"C57BL/6 female mice; G4 32 mg/kg i.v., Day 2",0/6
same,No of animals found dead/No. of animals per group,"C57BL/6 female mice; G4 32 mg/kg i.v., Day 2",0/6
same,Clinical observations/No of animals per group,"C57BL/6 female mice; G4 32 mg/kg i.v., Day 3",0/6
same,No of animals found dead/No. of animals per group,"C57BL/6 female mice; G4 32 mg/kg i.v., Day 3",0/6
same,Clinical observations/No of animals per group,"C57BL/6 female mice; G4 32 mg/kg i.v., Day 4",0/6
same,No of animals found dead/No. of animals per group,"C57BL/6 female mice; G4 32 mg/kg i.v., Day 4",0/6
same,Clinical observations/No of animals per group,"C57BL/6 female mice; G4 32 mg/kg i.v., Day 5",0/6
same,No of animals found dead/No. of animals per group,"C57BL/6 female mice; G4 32 mg/kg i.v., Day 5",0/6
same,Clinical observations/No of animals per group,"C57BL/6 female mice; G4 32 mg/kg i.v., Day 6",0/6
same,No of animals found dead/No. of animals per group,"C57BL/6 female mice; G4 32 mg/kg i.v., Day 6",0/6
same,Clinical observations/No of animals per group,"C57BL/6 female mice; G4 32 mg/kg i.v., Day 7",0/6
same,No of animals found dead/No. of animals per group,"C57BL/6 female mice; G4 32 mg/kg i.v., Day 7",0/6
same,treatment related change in body weight,"C57BL/6 female mice; all groups (4, 8, 16, 32 mg/kg i.v.)",No treatment related change in body weight was observed
same,mortality,"C57BL/6 female mice; any of the groups (4, 8, 16, 32 mg/kg i.v.), 7 days",no mortality was observed
